Measurements from ChEMBL document CHEMBL1137075, “General model for estimation of the inhibition of protein kinases using Monte Carlo simulations” (J Med Chem, 2004).
pIC50: −log10 of the molar value.

What was measured:
[1] = molecular target: Tyrosine-protein kinase Lck (Homo sapiens, UniProt P06239)
Description: Evaluated for inhibition of human p56 Lck tyrosine kinase

[2] = molecular target: Cyclin-dependent kinase 2 (Homo sapiens, UniProt P24941); assay: Evaluated for inhibition of human cyclin dependent kinase 2 (CDK2)

Tyrosine-protein kinase Lck, sequence (P06239 whole entry): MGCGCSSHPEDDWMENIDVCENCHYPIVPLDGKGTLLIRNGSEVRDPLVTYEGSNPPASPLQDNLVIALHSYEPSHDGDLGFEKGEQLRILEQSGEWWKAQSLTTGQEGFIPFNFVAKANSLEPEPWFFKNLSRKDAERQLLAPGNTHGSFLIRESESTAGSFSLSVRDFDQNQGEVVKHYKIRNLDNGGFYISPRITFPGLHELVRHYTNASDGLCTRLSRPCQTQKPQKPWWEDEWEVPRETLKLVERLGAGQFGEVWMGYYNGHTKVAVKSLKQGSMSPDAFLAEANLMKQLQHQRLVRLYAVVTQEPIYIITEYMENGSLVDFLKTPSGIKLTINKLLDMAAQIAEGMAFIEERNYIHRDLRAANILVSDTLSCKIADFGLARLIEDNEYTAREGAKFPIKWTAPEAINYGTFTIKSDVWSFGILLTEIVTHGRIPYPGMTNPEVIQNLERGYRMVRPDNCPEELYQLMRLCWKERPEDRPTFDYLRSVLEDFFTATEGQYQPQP

SMILES	pIC50 [1]	pIC50 [2]
COc1cc2nc(Nc3c(C)cccc3Cl)c3cnc(CO)n3c2cc1OC	8.21	
Oc1[nH]c2ccc(Br)cc2c1/N=N/c1ccccc1		7.37
c1ccc2c(c1)nc(C1CCCCC1)c1cncn12	5.50	
c1cncc(-c2nc3ccccc3n3cncc23)c1	6.09	
c1ccc2c(c1)nc(C1CC1)c1cncn12	5.50	
COc1ccc2[nH]c(O)c(/N=N/c3ccccc3)c2c1		7.22
CCCc1nc2ccccc2n2cncc12	5.57	
COc1cc2nc(Nc3c(C)cccc3Cl)c3cnc(C=O)n3c2cc1OC	8.00	
Oc1[nH]c2ccccc2c1/N=N/c1ccccc1		7.34
